# Experimental data from PMC5069568 (Diabetes, Obesity & Metabolism, 2016).
# Columns and labels:
# Format in all cases: in vivo, human
# [1] = tested on: obese or overweight adults with type 2 diabetes; test: Exposure–HbA1c analysis, Trial 2; conditions: Trial 2, type 2 diabetes, corresponds to ∼500 nM × h
# [2] = tested on: obese or overweight adults; test: Exposure–body weight loss analysis, clinical Trials 1–3; conditions: Trial 1, liraglutide 3.0 mg, overall female population
# [3] = tested on: obese or overweight adults; test: Exposure–safety outcome analyses
smiles,measurement,setting,value
"CCCCCCCCCCCCCCCC(=O)N[C@@H](CCC(=O)NCCCC[C@H](NC(=O)[C@H](C)NC(=O)[C@H](C)NC(=O)[C@H](CCC(N)=O)NC(=O)CNC(=O)[C@H](CCC(=O)O)NC(=O)[C@H](CC(C)C)NC(=O)[C@H](Cc1ccc(O)cc1)NC(=O)[C@H](CO)NC(=O)[C@H](CO)NC(=O)[C@@H](NC(=O)[C@H](CC(=O)O)NC(=O)[C@H](CO)NC(=O)[C@@H](NC(=O)[C@H](Cc1ccccc1)NC(=O)[C@@H](NC(=O)CNC(=O)[C@H](CCC(=O)O)NC(=O)[C@H](C)NC(=O)[C@@H](N)Cc1cnc[nH]1)[C@@H](C)O)[C@@H](C)O)C(C)C)C(=O)N[C@@H](CCC(=O)O)C(=O)N[C@@H](Cc1ccccc1)C(=O)N[C@H](C(=O)N[C@@H](C)C(=O)N[C@@H](Cc1c[nH]c2ccccc12)C(=O)N[C@@H](CC(C)C)C(=O)N[C@H](C(=O)N[C@@H](CCCNC(=N)N)C(=O)NCC(=O)N[C@@H](CCCNC(=N)N)C(=O)NCC(=O)O)C(C)C)[C@@H](C)CC)C(=O)O [liraglutide, Liraglutide]",liraglutide plasma concentration at which HbA1c reduction plateaued,[1],~21 nM
same,weight loss,[2],9.3 kg
same,weight loss from baseline,[2],9.2%
same,effect on serum calcitonin levels,"[3]; all three trials, change from baseline over all exposure quantiles",did not result in elevated serum calcitonin levels
same,increase in mean resting pulse versus placebo,"[3]; liraglutide-treated individuals, doses 1.2–3.0 mg, Trials 1–3",2–3 beats per min
